The results in this text go back to patent US20240336577A1, “PYRAZINE COMPOUND, AND METHOD OF PREPARATION AND USE THEREOF” (SHENZHEN OLIVE BIOPHARMACEUTICALS CO., LTD, priority 2020, published 2024).

The test system of one assay is SH—SY5Y cells. Description: Neuroprotection against oxygen glucose deprivation (OGD), MTT assay. It is filed as cell-based. The settings on record: 4 h OGD, FIG. 1. As to the method: Neuroprotective effect of tetramethylpyrazine (TMP) and derivatives thereof was evaluated by MTT assay. Cells were incubated, log-phase cells were collected, a concentration of a cell suspension was adjusted, an MTT-containing medium was added after chemical treatment and 4 h of incubation with OGD, incubation was conducted for 4 h, the medium in the wells was carefully removed, and 150 μl of dimethyl sulfoxide (DMSO) was added to each well, shaken at a low speed for 10 min on a shaker to fully dissolve crystals, and an absorbance value of each well was measured at an OD (absorbance) value of 490 nm of an enzyme-linked immunosorbent assay instrument (at the same time, a zero adjustment well (medium, MTT, DMSO), a control well (cells, a drug dissolution medium with the same concentration, medium, MTT, DMSO)). Data were presented as mean±SEM; n=8 per group. One-way ANOVA and multiple range test were adopted to show differences between the two groups. a, p<0.001 vs. control group; b, p<0.05 vs. OGD group; c, p<0.001 vs. OGD group.

Another assay concerns db/db mice. Kind of assay: Biochemical and metabolic indicators in db/db mice, 90 d administration. The class given is in vivo. To be noted: once/d 90 d, Losartan 15 mg/kg/d, TMP 5.0 mg/kg, OLB-1 2.31 mg/kg, OLB-2 2.3 mg/kg, mean±SEM, n=6.
In assay [1] the test system is 5*FAD mice. Kind of assay: Pro-inflammatory factors in hippocampus of 5*FAD mice, ELISA. The class given is in vivo. The settings on record: 6-month-old 5*FAD mice treated 3 months, low and high dosage; FIG. 3 and FIG. 4. On the procedure: After 6-month-old 5*FAD mice were treated with OLB-1 and OLB-2 for 3 months, the levels of IL-1β (A) and TNFα (B) in mouse hippocampus were detected by ELISA. 5*FAD mice were treated with low-dosage and high-dosage OLB-1 (low dosage: 2.31 mg/kg, 0.007 mmol/kg; high dosage: 11.70 mg/kg, 0.037 mmol/kg, the same below) and OLB-2 (low dosage: 2.3 mg/kg, 0.007 mmol/kg; high dosage: 11.67 mg/kg, 0.037 mmol/kg, the same below) and TMP (5.0 mg/kg, 0.037 mmol/kg, the same below). Data were presented as mean±SEM; n=5 to 6 per group. One-way ANOVA and multiple range test were adopted to show differences between the two groups. **p<0.01, ***p<0.001 vs. WT group; #p<0.05, ##p<0.01, ###p<0.001 vs. 5*FAD group.

The test system of assay [2] is 5*FAD mice. Description: Memory impairment in 5*FAD mice, electrical jumping (errors jumping off the platform). The class given is in vivo. To be noted: 6-month-old 5*FAD mice treated 3 months, low and high dosage; FIG. 5. On the procedure: After 6-month-old 5*FAD mice were treated with OLB-1 and OLB-2 for 3 months, the number of errors that the mice jumped off the platform was detected by electrical jumping. 5*FAD mice were treated with low-dosage and high-dosage OLB-1 (low dosage: 2.31 mg/kg, 0.007 mmol/kg; high dosage: 11.70 mg/kg, 0.037 mmol/kg) and OLB-2 (low dosage: 2.3 mg/kg, 0.007 mmol/kg; high dosage: 11.67 mg/kg, 0.037 mmol/kg) and TMP (5.0 mg/kg, 0.037 mmol/kg, the same below). Data were presented as mean±SEM; n=10 per group. One-way ANOVA and multiple range test were adopted to show differences between the two groups. ***p<0.001 vs. WT group; #p<0.05, ##p<0.01 vs. 5*FAD group.

Assay [3] has as its system ALS (SOD-G93A) transgenic mice. Description: Pole climbing test in ALS transgenic mice. The settings on record: different dosages of OLB-1, OLB-2, riluzole 5 mg/kg, FIG. 6. It is filed as in vivo. An excerpt: The pole climbing test is generally used to evaluate a motor coordination ability and motor delay of the limbs in mice. A homemade wooden pole about 50 cm long and about 1 cm in diameter was wrapped with medical gauze to increase friction of the wooden pole. The wooden pole was put vertically on a horizontal table, the mouse tail was grabbed such that the mouse head was facing down, with limbs grabbing a top of the pole; after releasing the mouse tail, timing was started, and it was ensured that the mouse crawled downward without external force, and the time was recorded for the mouse to climb from the top of the pole to a bottom platform (a standard was that mouse hind limbs were landed on the ground). […] An average of the three pole climbing times of mice was calculated as a final pole climbing time. […] Data were presented as mean±SEM; n=10 per group. One-way ANOVA and multiple range test were adopted to show differences between the two groups. ***p<0.001 vs. WT (normal control) group; #p<0.05, ##p<0.01 vs. ALS (SOD-G93A) group.

In assay [4] the test system is ALS (SOD-G93A) transgenic mice. Kind of assay: Limb grip force test in ALS transgenic mice. To be noted: different dosages of OLB-1, OLB-2, riluzole 5 mg/kg, FIG. 7. It is filed as in vivo. As to the method:
The limb grip force test is used directly to assess muscle strength in mice. […] After the start of administration, the grip force of the mice was tested every two weeks, and the measurement was repeated three times for each mouse, and the maximum among the three results was taken as a maximum grip force of the mice. […] Data were presented as mean±SEM; n=10 per group. One-way ANOVA and multiple range test show differences between the two groups. **p<0.01, ***p<0.001 vs. WT (normal control) group; #p<0.05, ##p<0.01 vs. ALS (SOD-G93A) group.

The test system of assay [5] is 6-OHDA Parkinson's disease rats. Description: APO-induced rotations in 6-OHDA Parkinson's disease rats. It is filed as in vivo. To be noted: APO-induced 6-OHDA rats, 2 weeks of treatment; different dosages of OLB-1, OLB-2; levodopa 25 mg/kg; FIG. 8. From the text: There is no rotation in a sham-operated group, and there is no significant difference between the groups injected with 6-OHDA, and there are about 180 rotations. […] Data were presented as mean±SEM; n=9-10 per group. One-way ANOVA and multiple range test were adopted to show differences between the two groups. *p<0.05, **p<0.01 vs. before 6-OHDA group.

On to `Cc1nc(C)c(CNC(=O)OCCc2ccc(O)cc2)nc1C` [OLB-2], for which the “death of SH—SY5Y cells caused by OGD” value in the assay on SH—SY5Y cells is “significantly reduce the death”. Further, in the assay on db/db mice, the Creatinine is listed as 46.28 ± 2.76(b) μmol/L, the Urea is 7.48 ± 0.35(c) mmol/L and the Urine albumin/creatinine is 477.51 ± 90.68(c) mg/g. For the same compound, in the assay on 5*FAD mice [1], the “proinflammatory cytokine IL-1β in hippocampus” value is recorded as “significantly reduced” and the “proinflammatory cytokine TNF-α in hippocampus” value is listed as “significantly reduced”. The “memory impairment (number of errors jumping off the platform)” value in the assay on 5*FAD mice [2] is reported as “significantly improve memory impairment”. The “pole climbing time / symptoms of bradykinesia” value in assay [3] is on record as “significantly improve the symptoms of bradykinesia”. Moreover, the limb grip force entry in assay [4] was “effectively increase the limb force”. Moreover, the number of rotations result in assay [5] is on record as “effectively reduce the number of rotations”.
On to `Cc1nc(C)c(COC(=O)OCCc2ccc(O)cc2)nc1C` [OLB-1], for which the “death of SH—SY5Y cells caused by OGD” value in the assay with SH—SY5Y cells is recorded as “significantly reduce the death”. In the assay with db/db mice, the Creatinine was 48.7 ± 3.68(a) μmol/L, the Urea is reported as 8.03 ± 0.61(c) mmol/L and the Urine albumin/creatinine is listed as 438.69 ± 83.23(c) mg/g. Besides, in the assay on 5*FAD mice [1], the “proinflammatory cytokine IL-1β in hippocampus” value was “significantly reduced” and the “proinflammatory cytokine TNF-α in hippocampus” value was “significantly reduced”. Further, the “memory impairment (number of errors jumping off the platform)” value in the assay with 5*FAD mice [2] is “significantly improve memory impairment”. Also, the “pole climbing time / symptoms of bradykinesia” value in assay [3] was “significantly improve the symptoms of bradykinesia”. In addition, the limb grip force result in assay [4] was “effectively increase the limb force”. The number of rotations result in assay [5] is listed as “effectively reduce the number of rotations”.
